Laboratory results: patent US6514999B1, “Use of an agent for treating the symptoms of Parkinson's disease” (priority 1998, dated 2003)

Tested on: symptoms of Parkinson's disease
Assay: Application to parkinsonian patients for treating the symptoms of Parkinson's disease
Assay type: in vivo, human (parkinsonian patients)
Details: compared within the anilide group of local anesthetics (lidocaine, bupivacaine, butanilicaine, etidocaine, tolycaine)
Source text: The inventive use has the effect, upon application to parkinsonian patients, that the specific symptoms of Parkinson's disease clearly subside, the resulting improved condition of the patient continuing for several hours and even days. In particular, a clear improvement of disease-specific symptoms was obtained with the inventive use […] “local anesthetic of the anilide group” essential to the inventive use belongs in general to the local anesthetics of different structure, the local anesthetics of the anilide group and their derivatives being preferred for treatment as a subgroup of said local anesthetics. Examples of said subgroup are not only mepivacaine but also lidocaine, bupivacaine, butanilicaine, etidocaine and tolycaine. […] One supposition is that the small molecular size of mepivacaine provides an increased probability of crossing the blood-brain barrier. Mepivacaine is in addition lipophilic, i.e. lipid-loving, and tends to attach to fat molecules. It is remarkable in this connection that neurons are usually embedded in fat and an accumulation or concentration of mepivacaine in fat will presumably also have effects on the nervous pathways running through fatty tissue. Levodopa also has strong lipophilia, like mepivacaine, so that this connection might also provide a mechanism of action. […]

## Cc1cccc(C)c1NC(=O)C1CCCCN1C (stereo not shown) [mepivacaine]
  effectiveness in treating patients with Parkinson's disease: most effective
